In patent US9540332B2, “Benzimidazole derivatives as selective blockers of persistent sodium current” (Allergan, Inc., priority 2011, dated 2017):
Entries after “also recorded” stand apart in the source; their conditions may differ.

Experiments:
[1] = tested on: capsaicin-induced thermal hyperalgesia; assay: capsaicin-induced thermal hyperalgesia, plantar test; type: in vivo, rat; settings: doses 10 mg/kg and above, i.p., FIG. 10
Text: A second method for evaluating of 1,2 substituted benzimidazoles on neuropathic pain was to determine their effects on capsaicin-induced thermal hyperalgesia in the rat.
Peripherally administered capsaicin (the active agent in chili peppers) induces an acute, local, inflammatory response through actions on nociceptive sensory nerve endings (‘pain fibers”). In rats, intraplantar injection of capsaicin produces decease in withdrawal latency to radiant heat (thermal hyperalgesia). This primary hyperalgesia, observed at the site of injury, is characterized by sensitization to thermal and mechanical stimulation. Primary hyperalgesia, especially that elicited by noxious thermal stimulus, is mediated, in part, by sensitization of C-fiber mechanoheat (polymodal) receptors (Kennis, 1982; Konietzny and Hensel, 1983; Simone, et al, 1987). […]
Intraplantar injection of capsaicin ([…]) was used to induce thermal hyperalgesia, as described previously(Gilchrist et al., 1996). […] For this test, hind paw withdrawal latencies (PWLs) to a noxious thermal stimulus were determined using the technique described by Hargreaves et al. (1988) using a plantar test apparatus (PAW
Thermal Analgesia Meter instrument Department of Anesthesiology, UCSD, San Diego, Calif.). Time to remove paw from heat source is measured and expressed as the paw withdrawal latency. […]
assessed 30 minutes after capsaicin challenge. […]

[2] = target: T1, Nav1.3 (Homo sapiens, UniProt Q9NY46); assay: gigohm-seal manual patch-clamp (MPC) on HEK cells stably transfected with sodium channels; type: cell-based
T1 construct: expressed in transfected cells; host or cells: HEK cells, stably transfected
Method: Therefore, the efficacy and selectivity of the identified persistent current antagonists were verified using conventional gigohm-seal manual patch-clamp (MPC).
MPC experiments were conducted on human embroynic kidney (HEK) cells stably transfected with sodium channels were plated on coverslips. Cells were patch clamped using standard patch-clamp techniques (Hamill, O. P., A. Marty, et al., 1981 Pflugers Arch. 391:85-100). Once sufficient persistent current was established, buffer was introduced into the chamber at a constant flow rate of […] until the persistent current stabilized. Subsequent concentration-response experiments were conducted using this same flow rate. After application of the compound, current amplitude was monitored until equilibrium was established. The data recorded at equilibrium was normalized to the control current measured during perfusion with control buffer in the absence of a test compound. Adequate solution perfusion and gigohm seal stability were monitored throughout the experiment. The compound's antagonism of persistent or transient sodium currents is expressed as the IC5O of block for the respective current (see Table 1). Selectivity for block of the persistent current was calculated as the ratio of the IC5O for the transient current divided by the IC5O for the persistent current.

[3] = tested on: rat cultured hippocampal pyramidal neurons; assay: spontaneous firing of cultured hippocampal neurons, whole cell current clamp; type: cell-based; settings: 1 μM, FIG. 2
Method: Activity of the compounds on the rate of spontaneous firing of neurons was assessed in hippocampal neurons. Hippocampal cells from P-2 rats were cultured for 10-14 days prior to use. Cells were plated on laminin-coated cover slips that could be transferred to a perfusion chamber for conventional whole cell electrophysiological studies. Conventional whole cell current clamp methods were used to record steady state and spontaneous action potentials. Cells were held at their resting potential (Iclamp=0 pA) and spontaneous action potentials were recorded and followed over time. Healthy cells had low rates of spontaneous firing. Spontaneous firing rate increased with metabolic insults to cells, e.g. Mg^2+-depletion or with aging. Spontaneous firing appeared to occur more often in older cell cultures (10-14 days).
The “current clamp” mode was employed tomeasure frequency of spontaneous discharge and action potential bursting in the absence and presence of compound #3 (1 μM). […] The results of these experiments contribute to the efficacy profile of the compounds of the present invention.

[4] = tested on: mechanical allodynia produced by spinal nerve ligation; assay: spinal nerve ligation (Chung Model), mechanical allodynia, von Frey hairs; type: in vivo, rats
Method: To assess the actions of the presently claimed benzimdazole compounds in neuropathic pain their efficacy in reversing the mechanical allodynia produced by spinal nerve ligation (Chung Model) and reducing the thermal hyperalgesia produced by subcutaneous injection of capsaicin was determined.
In the Chung spinal nerve ligation model, rats are anesthetized before surgery. The surgical site is shaved and prepared either with betadine or Novacaine. Incision is made from the thoracic vertebra XIII down toward the sacrum. Muscle tissue is separated from the spinal vertebra (left side) at the L4-S2 levels. The L6 vertebra is located and the transverse process is carefully removed with a small rongeur to expose the L4-L6 spinal nerves. The L5 and L6 spinal nerves are isolated and tightly ligated with 6-0 silk thread. The same procedure is done on the right side as a control, except no ligation of the spinal nerves is performed. […]
Compounds to be tested were prepared as suspension in vehicle containing 2% sodium carboxymethylcellulose (CMC) and 1% Pluronic FI 27 by vigorous homogenization. […] Tactile allodynia was measured prior to and at increments of 15, 30, 60 and 90 minutes after drug administration using von Frey hairs that are a series of fine hairs with incremental differences in stiffness. […] The applied force has been calculated to range from 0.41 to 15.1 grams. […]

[5] = tested on: blue light induced photoreceptor injury; assay: blue light induced photoreceptor injury (ERG and histology); type: in vivo, Sprague Dawley rat
Method: Exposure to blue light results in a loss of photoreceptor cells in the outer retina (arrows).
Hemotoxylin and Eosin stained retinal sections are imaged and outer nuclear layer (ONL) thickness and cell count is evaluated in 8 consecutive regions on either side of the optic nerve head (ONH) (A). In Sprague Dawley rat the typical ONL thickness and photoreceptor cell counts adjacent to the ONH are approximately 40 microns and 10 cells, respectively (B). The cell counts and thicknesses from a retinal section taken from the vertical meridian reveal that in naïve retinae they are stable from just adjacent to ONH in to the ora serata (C,D).
Rat eyes were cut parallel to the vertical meridian through the optic nerve head and several sections were collected. […] Within each […] region, 3 measurements, […] apart, were conducted, averaged and reported as ONL thickness (um). The number of rod and cone nuclei spanning the outer nuclear layer at each measurement site were counted manually and tabulated as photoreceptor #. For each animal, two to three sections were analyzed and averaged to give a final quantifiable value.

[6] = tested on: Experimental Autoimmune Encephalomyelitis (EAE); assay: Experimental Autoimmune Encephalomyelitis (EAE), clinical score and flash VEP; type: in vivo, rats
Text: Encephalomyelitis (EAE). (A) Representative flash Visual Evoked Potential (VEP) traces from baseline and following the induction of EAE. Three distinct peaks, N1, P2, N2 are labeled in the traces, with P2 being the most reproducible. Note that following the induction of EAE the latency to the P2 peak is increased. This is associated with a poor visual outcome in Optic Neuritis in humans. […] The maximum clinical score is the score associated with the most severe paralysis each animal experienced during the daily observation period.

[7] = tested on: seizures induced by a 6 Hz alternating current in mice; assay: 6 Hz seizure model; type: in vivo; settings: for Protected/Tested: 6 Hz 32 milliamp; for Protected/Tested / Deaths: 0.50 hr; for Deaths: 6 Hz

T1 sequence (Q9NY46 whole entry): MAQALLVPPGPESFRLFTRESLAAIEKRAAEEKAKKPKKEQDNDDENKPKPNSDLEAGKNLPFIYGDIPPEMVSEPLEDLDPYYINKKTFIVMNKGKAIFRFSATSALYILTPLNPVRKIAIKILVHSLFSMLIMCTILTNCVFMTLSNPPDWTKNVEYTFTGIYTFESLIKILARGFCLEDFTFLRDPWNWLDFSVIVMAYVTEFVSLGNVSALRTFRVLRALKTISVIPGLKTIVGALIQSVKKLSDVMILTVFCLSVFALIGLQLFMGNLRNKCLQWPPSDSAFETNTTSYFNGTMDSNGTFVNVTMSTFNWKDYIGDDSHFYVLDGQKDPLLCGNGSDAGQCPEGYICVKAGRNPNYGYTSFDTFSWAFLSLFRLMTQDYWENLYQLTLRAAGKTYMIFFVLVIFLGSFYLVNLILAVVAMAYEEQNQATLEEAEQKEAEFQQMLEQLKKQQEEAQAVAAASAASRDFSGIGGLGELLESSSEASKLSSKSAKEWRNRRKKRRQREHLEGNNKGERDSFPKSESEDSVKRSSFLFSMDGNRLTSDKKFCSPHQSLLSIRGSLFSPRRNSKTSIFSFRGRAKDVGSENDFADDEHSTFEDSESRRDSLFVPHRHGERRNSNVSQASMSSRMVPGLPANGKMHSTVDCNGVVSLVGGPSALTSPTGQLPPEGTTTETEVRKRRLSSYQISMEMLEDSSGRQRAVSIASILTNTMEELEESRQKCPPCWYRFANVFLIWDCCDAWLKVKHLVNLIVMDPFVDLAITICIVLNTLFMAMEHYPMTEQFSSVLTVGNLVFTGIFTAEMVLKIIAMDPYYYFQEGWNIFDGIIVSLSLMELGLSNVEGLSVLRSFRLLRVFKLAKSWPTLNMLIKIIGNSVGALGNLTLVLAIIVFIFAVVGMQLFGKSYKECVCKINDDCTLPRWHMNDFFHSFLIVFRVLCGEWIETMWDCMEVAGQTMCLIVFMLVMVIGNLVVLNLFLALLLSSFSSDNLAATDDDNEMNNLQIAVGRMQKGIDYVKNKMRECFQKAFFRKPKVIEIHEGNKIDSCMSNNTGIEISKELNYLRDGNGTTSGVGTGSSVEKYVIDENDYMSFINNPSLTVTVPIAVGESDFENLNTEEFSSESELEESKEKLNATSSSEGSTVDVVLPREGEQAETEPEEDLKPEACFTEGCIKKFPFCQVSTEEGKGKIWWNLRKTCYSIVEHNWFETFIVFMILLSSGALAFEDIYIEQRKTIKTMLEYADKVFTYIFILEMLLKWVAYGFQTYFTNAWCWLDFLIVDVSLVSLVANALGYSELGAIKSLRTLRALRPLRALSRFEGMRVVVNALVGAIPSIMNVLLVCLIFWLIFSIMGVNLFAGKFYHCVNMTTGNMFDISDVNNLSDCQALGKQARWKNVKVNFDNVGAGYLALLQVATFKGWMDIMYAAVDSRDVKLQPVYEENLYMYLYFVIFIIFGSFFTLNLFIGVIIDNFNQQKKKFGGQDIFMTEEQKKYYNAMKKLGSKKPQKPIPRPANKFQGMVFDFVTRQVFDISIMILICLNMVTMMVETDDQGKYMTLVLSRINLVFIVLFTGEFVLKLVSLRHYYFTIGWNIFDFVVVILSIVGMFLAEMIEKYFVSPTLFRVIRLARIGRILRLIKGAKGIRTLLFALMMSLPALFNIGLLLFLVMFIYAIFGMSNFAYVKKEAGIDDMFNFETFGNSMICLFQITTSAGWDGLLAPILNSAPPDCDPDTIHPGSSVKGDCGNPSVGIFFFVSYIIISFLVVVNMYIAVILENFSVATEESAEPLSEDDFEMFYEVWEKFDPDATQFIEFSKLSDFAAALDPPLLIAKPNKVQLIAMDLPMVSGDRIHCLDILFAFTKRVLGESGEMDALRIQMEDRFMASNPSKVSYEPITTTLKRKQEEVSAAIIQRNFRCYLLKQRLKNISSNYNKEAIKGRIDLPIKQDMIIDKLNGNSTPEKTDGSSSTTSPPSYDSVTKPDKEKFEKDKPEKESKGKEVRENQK

C=C(C)Cn1c(COc2cccc(OC)c2)nc2ccccc21 [Compound #3, 1-[1-(2-methylprop-2-enyl)benzimidazol-2-ylmethoxy]-3-methoxybenzene]
capsaicin-induced thermal hyperalgesia [1]: significantly reduces
concentration blocking 50% of the persistent current ([2]; FIG. 1): low to submicromolar
IC50 ([2]; FIG. 1, read-out: effective dose for blocking the transient current): > 30 µM
bursting activity (spontaneous bursts of action potentials) [3]: bursting activity was reduced
spontaneous discharge of action potentials [3]: potently decreased
allodynia with respect to vehicle injected controls ([4]; doses of 300 mg/kg, i.p., FIG. 9): significantly reduced
reversal of mechanical allodynia ([4]; doses of 30 and 300 mg/kg, FIG. 9 legend): significantly reduced
retinal function as determined by ERG (b-wave and a-wave amplitude) ([5]; 100 mg/kg i.p., after blue light exposure, FIG. 6): significantly preserves retinal function
structural integrity of the retina by histology (ONL thickness, photoreceptor count) ([5]; 100 mg/kg i.p., after blue light exposure, FIG. 7): preserved the structural integrity of the retina; also recorded: protects photoreceptors from blue-light induced toxicity

COc1cccc(OCc2nc3ccc(OCCC(C)C)cc3n2CC(C)C)c1 [Compound #2, 1-Isobutyl-2-(3-methoxy-phenoxymethyl)-6-(3-methyl-butoxy)-1H-benzimidazole]
VEP latency (P2 peak) ([6]; 50 mg/kg, FIG. 11 B, C): preserves VEP latency
maximum clinical score versus vehicle ([6]; FIG. 11): significantly (P<0.01) average lower clinical score
initial clinical sign of paralysis ([6]; dose of 30 mg/kg, FIG. 11): significantly reduces
Protected/Tested ([7]; dose 12.5 mg/kg): 1/8
Protected/Tested ([7]; dose 25.0 mg/kg): 3/8
Protected/Tested ([7]; dose 50.0 mg/kg): 3/8
Protected/Tested ([7]; dose 100.0 mg/kg): 5/8
Protected/Tested ([7]; dose 200.0 mg/kg): 8/8
Deaths ([7]; dose 12.5 mg/kg): 0
Deaths ([7]; dose 25.0 mg/kg): 0
Deaths ([7]; dose 50.0 mg/kg): 0
Deaths ([7]; dose 100.0 mg/kg): 0
Deaths ([7]; dose 200.0 mg/kg): 0
EC50 in the 6 Hz seizure model ([7]; mice): 50.7 mg/kg
predicted TD50 ([7]; mice): > 500 mg/kg
retinal function and structure as determined by ERG and histology ([5]; 30 mg/kg i.p., 6 hour blue light exposure, FIG. 8): preserves retinal function and structure
